In patent publication US9957264B2 (Merck Sharp & Dohme Corp., priority 2013, dated 2018):

Experiments:
[1] = target: JAK2 (recombinant purified GST-tagged catalytic domain) (Homo sapiens (Human), UniProt O60674); test: Jak Biochemical HTRF Assay (JAK2); details: [ATP] 8.5 μM
[2] = target: JAK1 (recombinant purified GST-tagged catalytic domain) (Homo sapiens (Human), UniProt P23458); test: Jak Biochemical HTRF Assay (JAK1); details: [ATP] 31.8 μM
Summary of the method: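 Compounds in DMSO were pre-equilibrated with enzyme and biotinylated peptide, then ATP was added and the reaction proceeded 120 min at room temperature. EDTA-based stop buffer with detection reagents was added, and after 60 min the time-resolved FRET ratio was read. IC50s came from 4-parameter dose–response fits.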

Chain of JAK2 (recombinant purified GST-tagged catalytic domain) (O60674 849-1124): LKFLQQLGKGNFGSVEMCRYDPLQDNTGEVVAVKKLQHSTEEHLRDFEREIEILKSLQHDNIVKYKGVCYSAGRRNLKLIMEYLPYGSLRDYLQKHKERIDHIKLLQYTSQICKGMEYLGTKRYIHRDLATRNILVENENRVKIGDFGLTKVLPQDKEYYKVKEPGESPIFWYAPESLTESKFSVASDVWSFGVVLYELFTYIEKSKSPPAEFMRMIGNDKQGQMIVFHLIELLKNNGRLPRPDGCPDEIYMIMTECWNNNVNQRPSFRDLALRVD
Chain of JAK1 (recombinant purified GST-tagged catalytic domain) (P23458 875-1153): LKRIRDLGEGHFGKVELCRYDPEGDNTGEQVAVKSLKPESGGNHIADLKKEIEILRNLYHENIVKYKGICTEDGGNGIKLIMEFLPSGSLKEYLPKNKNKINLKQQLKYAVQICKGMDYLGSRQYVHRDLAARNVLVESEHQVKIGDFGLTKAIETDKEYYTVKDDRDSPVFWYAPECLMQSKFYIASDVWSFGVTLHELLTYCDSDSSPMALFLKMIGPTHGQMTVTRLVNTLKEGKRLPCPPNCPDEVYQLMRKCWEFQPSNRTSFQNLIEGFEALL

SMILES	IC50 [1]	IC50 [2]
COCC(=O)N1CCC(CC#N)(n2nc(Nc3ccc(S(=O)(=O)N(C)C)cc3)c3c(=O)[nH]ccc32)CC1 [Example 9-3, 4-({1-[4-(cyanomethyl)-1-(methoxyacetyl)piperidin-4-yl]-4-oxo-4,5-dihydro-1H-pyrazolo[4,3-c]pyridin-3-yl}amino)-N,N-dimethylbenzenesulfonamide]	1.63 nM	0.24 nM
N#CC[C@]1(n2nc(Nc3ccc(C(N)C(F)(F)F)cc3)c3c(=O)[nH]ccc32)CCCC[C@H]1F (single isomer, unassigned) [Example 5-176, {(1R,2R)-1-[3-({4-[(1R or 1S)-1-amino-2,2,2-trifluoroethyl]phenyl}amino)-4-oxo-4,5-dihydro-1H-pyrazolo [4,3-c]pyridin-1-yl]-2-fluorocyclohexyl} acetonitrile]	0.09 nM	0.05 nM
CN1Cc2cc(Nc3nn(C4(CC#N)CCCCC4)c4cc[nH]c(=O)c34)ccc2S1(=O)=O [Example 5-81, 2-(1-(3-((2-methyl-1,1-dioxido-2,3-dihydrobenzo[d]isothiazol-5-yl)amino)-4-oxo-4,5-dihydro-1H-pyrazolo[4,3-c]pyridin-1-yl)cyclohexyl)acetonitrile]	3.73 nM	0.24 nM
CN(C)S(=O)(=O)c1cccc(Nc2nn(C3(CC#N)CCN(Cc4cccnc4)CC3)c3cc[nH]c(=O)c23)c1 [Example 8-19, 3-({1-[4-(cyanomethyl)-1-(pyridin-3-ylmethyl)piperidin-4-yl]-4-oxo-4,5-dihydro-1H-pyrazolo[4,3-c]pyridin-3-yl}amino)-N,N-dimethylbenzenesulfonamide]	1.98 nM	1.19 nM
CC(C)(C)OC(=O)[C@@H]1CC[C@@](CC#N)(n2nc(Nc3ccc(Cn4nccn4)cc3)c3c(=O)[nH]ccc32)CO1 [Example 5-97, (2S,5S)-tert-butyl 5-(3-((4-((2H-1,2,3-triazol-2-yl)methyl)phenyl)amino)-4-oxo-4,5-dihydro-1H-pyrazolo[4,3-c]pyridin-1-yl)-5-(cyanomethyl) tetrahydro-2H-pyran-2-carboxylate]	0.14 nM	0.09 nM
CC(C)(C)OC(=O)[C@@H]1CC[C@@](CC#N)(n2nc(Nc3cnc4ccccc4c3)c3c(=O)[nH]ccc32)CO1 [Example 5-221, (2S,5S)-tert-butyl 5-(cyanomethyl)-5-(4-oxo-3-(quinolin-3-ylamino)-4,5-dihydro-1H-pyrazolo[4,3-c]pyridin-1-yl)tetrahydro-2H-pyran-2-carboxylate]	5.29 nM	0.35 nM
COC(=O)N1CCC(CC#N)(n2nc(Nc3ccnc(F)c3)c3c(=O)[nH]ccc32)CC1 [Example 13-2, methyl 4-(cyanomethyl)-4-(3-(2-fluoropyridin-4-ylamino)-4-oxo-4,5-dihydropyrazolo[4,3-c]pyridin-1-yl)piperidine-1-carboxylate]	5.54 nM	0.64 nM
CN(C)CC(=O)N1CCC(CC#N)(n2nc(Nc3ccc(S(=O)(=O)N(C)C)cc3)c3c(=O)[nH]ccc32)CC1 [Example 9-4, 4-({1-[4-(cyanomethyl)-1-(N,N-dimethylglycyl)piperidin-4-yl]-4-oxo-4,5-dihydro-1H-pyrazolo[4,3-c]pyridin-3-yl}amino)-N,N-dimethylbenzenesulfonamide]	5.17 nM	0.65 nM
CS(=O)(=O)c1ccc(Nc2nn(C3(CC#N)CCN(c4ccc(C#N)cn4)CC3)c3cc[nH]c(=O)c23)cc1 [Example 15-2, 6-(4-(cyanomethyl)-4-(3-((4(methylsulfonyl)phenyl)amino)-4-oxo-4,5-dihydro-1H-pyrazolo[4,3-c]pyridin-1-yl)piperidin-1-yl)nicotinonitrile]	0.04 nM	0.04 nM
CN(C)S(=O)(=O)c1ccc(Nc2nn(C3(CC#N)CCN(Cc4c(F)cccc4F)CC3)c3cc[nH]c(=O)c23)cc1 [Example 8-10, 4-({1-[4-(cyanomethyl)-1-(2,6-difluorobenzyl)piperidin-4-yl]-4-oxo-4,5-dihydro-1H-pyrazolo[4,3-c]pyridin-3-yl}amino)-N,N-dimethylbenzenesulfonamide]	0.29 nM	0.19 nM
CC(C)(C)NC(c1ccc(Nc2nn([C@]3(CC#N)CCCOC3)c3cc[nH]c(=O)c23)cc1)C(F)(F)F (single isomer, unassigned) [Example 5-189, {(3S)-3-[3-({4-[(1R or 1S)-1-(tert-butylamino)-2,2,2-trifluoroethyl]phenyl}amino)-4-oxo-4,5-dihydro-1H-pyrazolo [4,3-c]pyridin-1-yl]tetrahydro-2H-pyran-3-yl}acetonitrile]	0.17 nM	0.14 nM
CN(C)S(=O)(=O)c1ccc(Nc2nn(C3(CC#N)CCN(Cc4ncco4)CC3)c3cc[nH]c(=O)c23)cc1 [Example 8-12, 4-({1-[4-(cyanomethyl)-1-(1,3-oxazol-2-ylmethyl)piperidin-4-yl]-4-oxo-4,5-dihydro-1H-pyrazolo[4,3-c]pyridin-3-yl}amino)-N,N-dimethylbenzenesulfonamide]	0.99 nM	0.26 nM
CC(C)NC(c1ccc(Nc2nn([C@]3(CC#N)CC[C@@H](C(=O)OC(C)(C)C)OC3)c3cc[nH]c(=O)c23)cc1)C(F)(F)F (single isomer, unassigned) [Example 5-210, (2S,5S)-tert-butyl 5-(cyanomethyl)-5-(4-oxo-3-((4-((R or S)-2,2,2-trifluoro-1-(isopropylamino)ethyl)phenyl)amino)-4,5-dihydro-1H-pyrazolo[4,3-c]pyridin-1-yl)tetrahydro-2H-pyran-2-carboxylate]	0.51 nM	0.41 nM
COC(=O)N1CCC(CC#N)(n2nc(Nc3ccc4c(c3)CN(CC(C)C)S4(=O)=O)c3c(=O)[nH]ccc32)CC1 [Example 5-73, methyl 4-(cyanomethyl)-4-(3-{[2-(2-methylpropyl)-1,1-dioxo-2,3-dihydro-1,2-benzothiazol-5-yl]amino}-4-oxo-1H,4H,5H-pyrazolo [4,3-c]pyridin-1-yl) piperidine-1-carboxylate]	0.35 nM	0.12 nM
CN(C)S(=O)(=O)c1ccc(Nc2nn(C3(CC#N)CCN(C(=O)C45CC6C[C@H](C4)C[C@@H](C6)C5)CC3)c3cc[nH]c(=O)c23)cc1 [Example 9-9, 4-[(1-{4-(cyanomethyl)-1-[(3S,5S,7S)-tricyclo[3.3.1.1^3,7]dec-1-ylcarbonyl]piperidin-4-yl}-4-oxo-4,5-dihydro-1H-pyrazolo[4,3-c]pyridin-3-yl)amino]-N,N-dimethylbenzenesulfonamide]	38.8 nM	3.96 nM
CC(C)(C)OC(=O)N1CCC(CC#N)(n2nc(Nc3ccc(C4(C(F)(F)F)CCNC4)cc3)c3c(=O)[nH]ccc32)CC1 (single isomer, unassigned) [Example 5-283, (S or R) tert-butyl 4-(cyanomethyl)-4-(4-oxo-3-((4-(3-(trifluoromethyl)pyrrolidin-3-yl)phenyl)amino)-4,5-dihydro-1H-pyrazolo[4,3-c]pyridin-1-yl)piperidine-1-carboxylate]	0.43 nM	0.33 nM
CC1CCN1S(=O)(=O)c1ccc(Nc2nn([C@]3(CC#N)CCCOC3)c3cc[nH]c(=O)c23)cc1 (single isomer, unassigned) [Example 5-109, [(3S)-3-{3-[(4-{[(2S or 2R)-2-methylazetidin-1-yl]sulfonyl}phenyl)amino]-4-oxo-4,5-dihydro-1H-pyrazolo[4,3-c]pyridin-1-yl}tetrahydro-2H-pyran-3-yl]acetonitrile]	0.29 nM	0.25 nM

Other lines, results leading:

IC50 [1]	IC50 [2]	SMILES
1020 nM	74 nM	N#CC[C@]1(n2nc(Nc3ccc(Cl)cc3)c3c(=O)[nH]ccc32)CC[C@@H](NCC(F)(F)F)CC1 [Example 18-10, Cis 2-(1-(3-((4-chlorophenyl)amino)-4-oxo-4,5-dihydro-1H-pyrazolo[4,3-c]pyridin-1-yl)-4-((2,2,2-trifluoroethyl)amino)cyclohexyl)acetonitrile]
2.2 nM	0.22 nM	N#CC[C@]1(n2nc(Nc3ccc(Cl)cc3)c3c(=O)[nH]ccc32)CC[C@H](NCC(F)(F)F)CC1 [Example 18-11, Trans 2-(1-(3-((4-chlorophenyl)amino)-4-oxo-4,5-dihydro-1H-pyrazolo[4,3-c]pyridin-1-yl)-4-((2,2,2-trifluoroethyl)amino)cyclohexyl)acetonitrile]
36.6 nM	0.37 nM	N#CC[C@]1(n2nc(Nc3ccc(OC(F)(F)F)cc3)c3c(=O)[nH]ccc32)CC[C@H](NC2CCCCC2)CC1 [Example 18-19, Trans 2-(4-(cyclohexylamino)-1-(4-oxo-3-((4-(trifluoromethoxy)phenyl)amino)-4,5-dihydro-1H-pyrazolo[4,3-c]pyridin-1-yl)cyclohexyl)acetonitrile]
0.94 nM	0.26 nM	N#CCC1(n2nc(Nc3ccc(C(F)(F)F)cc3)c3c(=O)[nH]ccc32)CCC(N2CC(F)C2)CC1 (single isomer, unassigned) [Example 18-1, 2-(4-(3-fluoroazetidin-1-yl)-1-(4-oxo-3-((4-(trifluoromethyl)phenyl)amino)-4,5-dihydro-1H-pyrazolo[4,3-c]pyridin-1-yl)cyclohexyl)acetonitrile]
0.32 nM	0.33 nM	Cc1cc(Nc2nn(C3(CC#N)CCN(C(=O)OC(C)(C)C)CC3)c3cc[nH]c(=O)c23)ccc1C(=O)N1CCSCC1 [Example 21-14, tert-butyl-4-(cyanomethyl)-4-(3-(3-methyl-4-(thiomorpholine-4-carbonyl)phenylamino)-4-oxo-4,5-dihydropyrazolo[4,3-c]pyridin-1-yl)piperidine-1-carboxylate]
0.38 nM	0.43 nM	Cc1cc(Nc2nn(C3(CC#N)CCN(C(=O)OC(C)(C)C)CC3)c3cc[nH]c(=O)c23)ccc1C(=O)N1CCC(F)(F)CC1 [Example 21-11, tert-butyl 4-(cyanomethyl)-4-(3-((4-(4,4-difluoropiperidine-1-carbonyl)-3-methylphenyl)amino)-4-oxo-4,5-dihydro-1H-pyrazolo[4,3-c]pyridin-1-yl)piperidine-1-carboxylate]
